Series [1] concerns the target T1, thrombin (Homo sapiens, UniProt P00734).
T1 construct: purchased Haematologic Technologies Inc
Nature of the series: Thrombin amidolytic assay (FIGS. 1 to 3): neutralisation of TRI 50c inhibition of thrombin. It counts as biochemical. To be noted: for neutralising the effect of TRI 50c (thrombin activity restored): added after 100 nM TRI 50c; for TRI 50c neutralising activity: FIG. 2, cholesterol linoleic acid esters and free linoleic acids, stereoisomers; for neutralising ability against TRI 50c: FIG. 3, over 30 minutes. The procedure: Peptide boronate inhibitors were synthesised by Trigen Limited. Thrombin was obtained from Haematologic Technologies Inc. Chromogenic substrate was obtained from Quadratech. Linoleic acid analogues were obtained from Cayman Chemicals USA. Buffer reagents were obtained from Merck.
Peptide boronate inhibitor of thrombin (TRI 50c, 100 nM) was incubated with thrombin (33.3 ng/ml) in assay buffer (100 mM sodium phosphate, 200 mM NaCl, 0.5% PEG 6000 and 0.02% sodium azide, pH 7.5) for 5 minutes at 37° C. Test compounds were then added and incubated for various amounts of time prior to the addition of S2238 chromogenic substrate (5 uM). The reaction was followed at […] and 37° C. using a Thermomax kinetic plate reader (Molecular Devices Corporation). Results of the assay are expressed as percentage activities of thrombin relative to that seen in the absence of inhibitor or antidote.

The subject of series [2] is thrombin. The series is described as follows: IC50 values: percentage reversal of TRI 50c inhibition of thrombin by hydroxy fatty acid. The settings on record: thrombin 33.3 ng/ml, TRI 50c 300 nM final, 30 minutes at 37° C., S2238. It counts as biochemical. As to the method: 50 μl thrombin (33.3 ng/ml in assay buffer) and 20 μl TRI 50c (300 nM final) were added to 10 μl assay buffer (100 mM Na orthophosphate (80% Na2HPO4 and 20% NaH2PO4), 200 mM NaCl, 0.5% PEG 6000, 0.02% Na azide, pH 7.5) and incubated for 5 minutes at 37° C. After the incubation period 100 μl of hydroxy fatty acid was added and further incubated for 30 minutes at 37° C. […] Results were expressed as percentage reversal of TRI 50c inhibition.

The nature of series [3]: Assay for deboronation (LCMS of TGN 255/9(S)-HODE mixture). The settings on record: TGN 255 6.7 mg/ml, 9(S)-HODE 0.01 mg/ml, 37° C. 30 mins, then room temperature overnight; uv chromatogram and mass. As to the method:
This Example relates to a method for detecting the amount of deboronation of a product, TRI 50, in the presence of 9-HODE. A proposed mechanism for the degradation of TRI 50 is shown below.
The thrombin buffer was made up of 100 mM NaOphosphate [80% Na2HPO4 (11.36 g/l anhydrous)+20% NaH2PO4 (2.4 g/l anhydrous)], 200 mM NaCl (11.688 g/l), 0.5% PEG 6000 (5 g/l), 0.02% Na azide (0.2 g/l), pH 7.5.
TGN 255 (20 mg) was dissolved in DMSO (1.9 ml). To this was added thrombin buffer (0.8 ml), followed by 9(S)-HODE (supplied by Cayman Chemical) in thrombin buffer (0.3 ml, 337 uM). The solution was incubated at 37° C. for 30 mins.
Samples of TGN 255 (14 mg/ml in methanol) and Impurity I (5.6 mg/ml in methanol) were prepared as standards. The 9(S)-HODE assay sample was allowed to stand at room temperature overnight and analysed the following day.

Series [4] is described as follows: Neutralisation by cholesteryl linoleate hydroperoxide (residual TRI-50b concentration). As to the method:
Cholesteryl linoleate hydroperoxide (44 μM) was incubated with TRI-50b in the range 0 to 4.9 mM. Samples were taken at timed intervals and the residual TRI-50b concentration was determined by Method C (Materials and Methods).

These results are taken from patent US20100022646A1, “METHOD OF NEUTRALISING ORGANOBORONATES WITH ACIDS” (priority 2004, published 2010).

A value given as a limit tells only on which side of the number the result lay.

For the compound “9,13- hydroxy cholesterol linoleic acid ester [9/13-CLOH]”, the “neutralising the effect of TRI 50c (thrombin activity restored)” value (“neutralising the effect of TRI 50c” below) in series [1] (FIG. 1) was “effective in neutralising the effect of TRI 50c”.

For orientation: IC50 means the concentration at which inhibition is half-maximal. In the case of `CCCCC/C=C\C/C=C\C/C=C\C=C\C(O)CCCC(=O)O` (racemic) [(+/−)5-HETE], in series [2], the 50% inhibitory concentration (IC50) is above 30 µM.

Consider `CCCCC/C=C\C/C=C\CC(O)C(O)C/C=C\CCCC(=O)O` (racemic) [(+/−)8,9-DIHETRE], for which, in series [2], the IC50 was above 30 µM.

For `CCCCC/C=C\C/C=C\C=C\C(O)C/C=C\CCCC(=O)O` (racemic) [(+/−)8-HETE], the concentration for half-maximal inhibition (IC50) in series [2] is above 30 µM.

For the compound `CCCCC/C=C\C=C\C(O)CCCCCCCCCC(=O)O` (racemic) [(+/−)11-HEDE], the half-inhibitory concentration (IC50) in series [2] is above 30 µM.

In the case of `C[C@H]1CCC/C=C/C2C[C@H](O)CC2[C@H](O)/C=C/C(=O)O1` (single isomer, unassigned; (+)) [(+)-Brefeldin A, reference compound], the concentration for half-maximal inhibition (IC50) in series [2] was above 30 µM.

Consider `COC(=O)[C@H]1CC2CCC1[C@@H](O)C2` (stereo in doubt) [Methyl 6-hydroxybicyclo[2.2.2]octane-2-carboxylate, reference compound], for which, in series [2], the IC50 is above 30 µM.

On to `CCCCC/C=C\C/C=C\C/C=C\C=C\[C@H](CCCC(=O)O)OO` [5(S)-HPETE], for which, in series [2], the IC50 amounted to 25 µM.

As for `CC/C=C\C/C=C\C/C=C\C=C\[C@@H](O)C/C=C\CCCC(=O)O` [8(S)-HEPE, 8(S)-hydroxy-5Z, 9E, 11Z, 14Z, 17Z-eicosapentaenoic acid], the IC50 in series [2] stood at 14 µM.

Turning to `CCCCC/C=C\C/C=C\C=C\[C@@H](O)CCCCCCC(=O)O` [8(S)-HETRE, 8(S)-hydroxy-9E, 11Z, 14Z-eicosatrienoic acid], the IC50 in series [2] was found to be 16 µM.

Regarding `CCCCC/C=C\C=C\[C@H](O)CCCCCCCC(=O)O` [9(R)-HODE], the concentration for half-maximal inhibition (IC50) in series [2] was above 30 µM.

`CCCCC/C=C\C=C\[C@@H](O)CCCCCCCC(=O)OC1CC[C@@]2(C)C(=CCC3C4CCC(C(C)CCCC(C)C)[C@@]4(C)CCC32)C1` (stereo partly drawn) [9(S)-HODE cholesteryl ester]: the IC50 in series [2] came to 4.4 µM. In addition, in series [1], the “TRI 50c neutralising activity” value is listed as “particularly good” and the “neutralising ability against TRI 50c” value is “very good”.

As to `CCCCC/C=C\C=C\[C@@H](O)CCCCCCCC(=O)O` [9(S)-HODE, 9(S)-hydroxy-10E,12Z-octadecadienoic acid], the half-inhibitory concentration (IC50) in series [2] was 12 µM. The “deboronation/degradation of TGN 255 to Impurity I” value in series [3] is given as “degradation has occurred”. For the same compound, in series [1], the “TRI 50c neutralising activity” value is “particularly good” and the “neutralising ability against TRI 50c” value is recorded as “particularly good effect”.

As for `CC/C=C\C/C=C\C=C\[C@@H](O)CCCCCCCC(=O)O` [9(S)-HOTRE], the IC50 in series [2] was above 30 µM.

For `CCCCC/C=C\C=C\[C@H](CCCCCCCC(=O)O)OO` [9(S)-HpODE, 9-(S)-hydroperoxy-10E,12Z-octadecadienoic acid], in series [2], the IC50 is above 30 µM.

Turning to `CCCCCC=CC=CC(O)CCCCCCCC(=O)O[C@H]1CC[C@@]2(C)C(=CC[C@H]3[C@@H]4CC[C@H]([C@H](C)CCCC(C)C)[C@@]4(C)CC[C@@H]32)C1` (stereo partly shown) [9-CLOH, 9-hydroxy cholesterol linoleic acid ester], the “neutralising the effect of TRI 50c” value in series [1] (FIG. 1) is “effective in neutralising the effect of TRI 50c”.

In the case of `CCCCC[C@@H](/C=C/C=C\CCCCCCCC(=O)O)OO` [13(S)-HpODE, 13(S)-hydroperoxy-octadecadienoic acid], in series [1], the “TRI 50c neutralising activity” value is reported as “particularly good”.

In the case of `CC1(C)[C@@]2(C)CC[C@]1(C)[C@H](CC(=O)O)[C@H]2O` [(−)-Isoborneolacetic Acid, reference compound], the 50% inhibitory concentration (IC50) in series [2] was above 30 µM.

`COCCC[C@H](NC(=O)[C@@H]1CCCN1C(=O)[C@@H](Cc1ccccc1)NC(=O)OCc1ccccc1)B(O)O` [TRI 50c, Cbz-(R)-Phe-(S)-Pro-(R)-Mpg-B(OH)2, reference compound]: the “thrombin activity as compared with the control (no TRI 50c present)” value in series [1] (FIG. 1, addition of 100 nM TRI 50c, thrombin 33.3 ng/ml, S2238 substrate) is on record as “approximately 50%”.

Turning to “cholesterol hydroperoxylinoleic acid ester [CLOOH]”, the “neutralising the effect of TRI 50c” value in series [1] (FIG. 1) is recorded as “effective in neutralising the effect of TRI 50c”. For the same compound, the “TRI 50c neutralising activity” value in series [1] is on record as “particularly good”. Moreover, in series [4] (44 μM cholesteryl linoleate hydroperoxide mixed with TRI-50b), the equivalence of neutralisation entry is given as “approximately 1 mole/mole”. The “rate of neutralisation of TRI-50b” value in series [4] (44 μM cholesteryl linoleate hydroperoxide, TRI-50b 0 to 4.9 mM) was “high rate of neutralisation”.
